{"source": "patent US8546377B2", "about": "(AbbVie Inc., priority 2009, dated 2013)"}
{"target": "T1, h-5-HT6 receptor (Homo sapiens, UniProt P50406)", "T1 construct": "expressed in transfected cells; host or cells: HEK293 cells (membrane preparation)", "T1 sequence (P50406 whole entry)": "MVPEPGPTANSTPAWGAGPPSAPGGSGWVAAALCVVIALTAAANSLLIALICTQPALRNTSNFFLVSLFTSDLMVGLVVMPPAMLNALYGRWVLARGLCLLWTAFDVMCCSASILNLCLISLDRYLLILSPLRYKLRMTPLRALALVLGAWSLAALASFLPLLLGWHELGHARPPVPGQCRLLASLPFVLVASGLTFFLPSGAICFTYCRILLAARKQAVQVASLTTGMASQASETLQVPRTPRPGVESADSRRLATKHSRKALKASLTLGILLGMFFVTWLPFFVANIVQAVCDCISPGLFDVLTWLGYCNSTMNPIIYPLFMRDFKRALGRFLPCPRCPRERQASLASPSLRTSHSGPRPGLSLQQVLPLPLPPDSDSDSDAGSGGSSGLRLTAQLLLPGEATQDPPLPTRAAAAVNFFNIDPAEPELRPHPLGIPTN", "test": "Human 5-HT6 receptor radioligand binding assay ([3H]-LSD, HEK293 membranes)", "details": "HEK293 membranes, 1 nM [3H]-lysergic acid diethylamide, 3.5 hours at room temperature; read-out: Ki (μM), 5-HT6 Agonist Site Radioligand Binding", "experimental": "(iv) Human 5-HT6 Receptor Radioligand Binding Assay\nPreparation of Membranes by Ultrasonic Treatment and Differential Centrifugation\nCells from stable clonal cell lines expressing the corresponding receptor (5-HT6) were washed with PBS (without Ca^++, Mg^++) and harvested in PBS with 0.02% EDTA. The cells were collected by centrifugation at 500 g for 10 minutes at 4° C., washed with PBS and centrifuged (500 g, 10 minutes at 4° C.). The pellets were stored at −80° C. until use. For membrane preparation, the thawed cell pellet was resuspended in ice-cold sucrose buffer (0.25 M sucrose, 10 mM HEPES (pH 7.4), 1 mM phenylmethylsulfonyl fluoride (PMSF) in DMSO, 5 μg/ml Pepstatin-A, 3 mM EDTA, 0.025% Bacitracin) and homogenized with a Branson Sonifier W-250 (Settings: Timer 4; Output Control 3; Duty Cycle constant; 2 to 3 cycles). Cell disruption was checked with the aid of a microscope. Remaining unbroken cells were pelleted at 1,000 g for 10 minutes at 4° C. The sucrose buffer supernatant was then centrifuged at 60,000 g for 1 hour at 4° C. (Beckman Ultrazentrifuge XL 80). The pellet was resuspended in 30 mL of ice-cold Tris buffer (20 mM TRIS (pH 7.4), 5 μg/mL Pepstatin A, 0.1 mM PMSF, 3 mM EDTA) by pipetting through a 10 mL serological pipet and centrifuged for 1 hour at 4° C. at 60,000 g. A final resuspension was performed in a small volume of ice-cold Tris buffer (see above) by pressing through a serological pipet followed by ultrasonic treatment with a Branson Sonifier W-250 (Settings: Timer 1; Output Control 3; Duty Cycle constant; 1 cycle). Protein concentration was determined (BCA-Kit; Pierce) and aliquots stored at −80° C. or in liquid nitrogen for long-term storage.\nReceptor Binding Experiments\nAll receptor binding experiments were carried out in the corresponding assay buffer in a total volume of 200 μL in the presence of various concentrations of test compound (10^−5 M to 10^−9 M, tenfold serial dilution, duplicate determinations). The assays were terminated by filtration on polyethylenimine (PEI 0.1% or 0.3%) presoaked Packard Unifilter Plates (GF/C or GF/B) with a Tomtec MachIII U 96 well-plate harvester. After the plates had been dried for 2 hours at 55° C. in a drying chamber scintillation cocktail (BetaPlate Scint; PerkinElmer) was added. Radioactivity was measured in a Microbeta Trilux two hours after the addition of the scintillation mixture.\n5-HT6 Receptor Binding Assay\nHEK293 cells stably expressing the h-5-HT6 receptor (NCBI Reference Sequence XM 001435) were cultured in RPMI1640 medium supplemented with 25 mM HEPES, 10% fetal calf serum and 1-2 mM glutamine. The membrane preparation was performed as described above. […] On the day of the assay, the membranes were thawed, diluted in assay buffer (50 mM Tris-HCl, 5 mM CaCl2, 0.1% ascorbic acid, 10 μM pargyline, pH 7.4) to a concentration of 8 μg protein/assay and homogenized by gentle vortexing. […] Non-specific binding was defined with 1 μM methiothepin. The binding reaction was carried out for 3.5 hours at room temperature. During the incubation, the plates were shaken on a plate shaker at 100 rpm and terminated by filtration on Packard Unifilter GF/C (0.1% PEI) plates, followed by 2 wash cycles with ice-cold 50 mM Tris-HCl, 5 mM CaCl2.\nData derived from liquid scintillation counting were analyzed by iterative non-linear regression analysis with the use of the Statistical Analysis System (SAS): a program similar to “LIGAND” as described by Munson and Rodbard (Anal. Biochem. 1980, 107, 220-239). Fitting was performed according to formulae described by Feldman (Anal. Biochem. 1972, 48, 317-338). IC50, nH and Ki values were expressed as geometrical mean.\nThe results of the receptor binding studies are expressed as receptor binding constants Ki(5-HT6) as described herein before, and given in Table 5.", "units": {"Ki": "µM"}}
{"smiles": "O=C1CC2CNCCN2c2ccc(NS(=O)(=O)c3ccccc3-c3ccccc3)cc2N1", "note": "(stereo not shown) [Example 97, N-(6-oxo-1,2,3,4,4a,5,6,7-octahydropyrazino[1,2-a][1,5]benzodiazepin-9-yl)biphenyl-2-sulfonamide]", "Ki": 0.0024}
{"smiles": "Cc1ccccc1S(=O)(=O)Nc1ccc2c(c1)NC(=O)CC1CNCCN21", "note": "(stereo not shown) [Example 98, 2-methyl-N-(6-oxo-1,2,3,4,4a,5,6,7-octahydropyrazino[1,2-a][1,5]benzodiazepin-9-yl)benzenesulfonamide]", "Ki": 0.0224}
{"smiles": "Cc1ccc(S(=O)(=O)Nc2ccc3c(c2)NC(=O)CC2CNCCN32)cc1", "note": "(stereo not shown) [Example 99, 4-methyl-N-(6-oxo-1,2,3,4,4a,5,6,7-octahydropyrazino[1,2-a][1,5]benzodiazepin-9-yl)benzenesulfonamide]", "Ki": 0.0221}
{"smiles": "Cc1cccc(S(=O)(=O)Nc2ccc3c(c2)NC(=O)CC2CNCCN32)c1", "note": "(stereo not shown) [Example 100, 3-methyl-N-(6-oxo-1,2,3,4,4a,5,6,7-octahydropyrazino[1,2-a][1,5]benzodiazepin-9-yl)benzenesulfonamide]", "Ki": 0.0475}
{"smiles": "O=C1CC2CNCCN2c2ccc(NS(=O)(=O)c3cccc(Cl)c3)cc2N1", "note": "(stereo not shown) [Example 101, 3-chloro-N-(6-oxo-1,2,3,4,4a,5,6,7-octahydropyrazino[1,2-a][1,5]benzodiazepin-9-yl)benzenesulfonamide]", "Ki": 0.0223}
{"smiles": "O=C1CC2CNCCN2c2ccc(NS(=O)(=O)c3ccc(Cl)cc3)cc2N1", "note": "(stereo not shown) [Example 102, 4-chloro-N-(6-oxo-1,2,3,4,4a,5,6,7-octahydropyrazino[1,2-a][1,5]benzodiazepin-9-yl)benzenesulfonamide]", "Ki": 0.0092}
{"smiles": "O=C1CC2CNCCN2c2ccc(NS(=O)(=O)c3ccccc3F)cc2N1", "note": "(stereo not shown) [Example 103, 2-fluoro-N-(6-oxo-1,2,3,4,4a,5,6,7-octahydropyrazino[1,2-a][1,5]benzodiazepin-9-yl)benzenesulfonamide]", "Ki": 0.0299}
{"smiles": "O=C1CC2CNCCN2c2ccc(NS(=O)(=O)c3cccc(F)c3)cc2N1", "note": "(stereo not shown) [Example 104, 3-fluoro-N-(6-oxo-1,2,3,4,4a,5,6,7-octahydropyrazino[1,2-a][1,5]benzodiazepin-9-yl)benzenesulfonamide]", "Ki": 0.0596}
{"smiles": "O=C1CC2CNCCN2c2ccc(NS(=O)(=O)c3ccc(F)cc3)cc2N1", "note": "(stereo not shown) [Example 105, 4-fluoro-N-(6-oxo-1,2,3,4,4a,5,6,7-octahydropyrazino[1,2-a][1,5]benzodiazepin-9-yl)benzenesulfonamide]", "Ki": 0.0208}
{"smiles": "COc1ccccc1S(=O)(=O)Nc1ccc2c(c1)NC(=O)CC1CNCCN21", "note": "(stereo not shown) [Example 106, 2-methoxy-N-(6-oxo-1,2,3,4,4a,5,6,7-octahydropyrazino[1,2-a][1,5]benzodiazepin-9-yl)benzenesulfonamide]", "Ki": 0.026}
{"smiles": "COc1cccc(S(=O)(=O)Nc2ccc3c(c2)NC(=O)CC2CNCCN32)c1", "note": "(stereo not shown) [Example 107, 3-methoxy-N-(6-oxo-1,2,3,4,4a,5,6,7-octahydropyrazino[1,2-a][1,5]benzodiazepin-9-yl)benzenesulfonamide]", "Ki": 0.022}
{"smiles": "COc1ccc(S(=O)(=O)Nc2ccc3c(c2)NC(=O)CC2CNCCN32)cc1", "note": "(stereo not shown) [Example 108, 4-methoxy-N-(6-oxo-1,2,3,4,4a,5,6,7-octahydropyrazino[1,2-a][1,5]benzodiazepin-9-yl)benzenesulfonamide]", "Ki": 0.0669}
{"smiles": "O=C1CC2CNCCN2c2ccc(NS(=O)(=O)c3cccs3)cc2N1", "note": "(stereo not shown) [Example 109, N-(6-oxo-1,2,3,4,4a,5,6,7-octahydropyrazino[1,2-a][1,5]benzodiazepin-9-yl)thiophene-2-sulfonamide]", "Ki": 0.0556}
{"smiles": "O=C1CC2CNCCN2c2ccc(NS(=O)(=O)c3c(Cl)cccc3Cl)cc2N1", "note": "(stereo not shown) [Example 119, 2,6-dichloro-N-(6-oxo-1,2,3,4,4a,5,6,7-octahydropyrazino[1,2-a][1,5]benzodiazepin-9-yl)benzenesulfonamide]", "Ki": 0.0378}
{"smiles": "O=C1CC2CNCCN2c2ccc(NS(=O)(=O)c3cccc(OC(F)(F)F)c3)cc2N1", "note": "(stereo not shown) [Example 120, N-(6-oxo-1,2,3,4,4a,5,6,7-octahydropyrazino[1,2-a][1,5]benzodiazepin-9-yl)-3-(trifluoromethoxy)benzenesulfonamide]", "Ki": 0.0183}
{"smiles": "N#Cc1ccc(S(=O)(=O)Nc2ccc3c(c2)NC(=O)CC2CNCCN32)cc1", "note": "(stereo not shown) [Example 121, 4-cyano-N-(6-oxo-1,2,3,4,4a,5,6,7-octahydropyrazino[1,2-a][1,5]benzodiazepin-9-yl)benzenesulfonamide]", "Ki": 0.621}
{"smiles": "N#Cc1cccc(S(=O)(=O)Nc2ccc3c(c2)NC(=O)CC2CNCCN32)c1", "note": "(stereo not shown) [Example 122, 3-cyano-N-(6-oxo-1,2,3,4,4a,5,6,7-octahydropyrazino[1,2-a][1,5]benzodiazepin-9-yl)benzenesulfonamide]", "Ki": 0.19}
{"smiles": "O=C1CC2CNCCN2c2ccc(NS(=O)(=O)c3c(F)cccc3F)cc2N1", "note": "(stereo not shown) [Example 123, 2,6-difluoro-N-(6-oxo-1,2,3,4,4a,5,6,7-octahydropyrazino[1,2-a][1,5]benzodiazepin-9-yl)benzenesulfonamide]", "Ki": 0.0583}
{"smiles": "O=C1CC2CNCCN2c2ccc(NS(=O)(=O)c3cccc4ccccc34)cc2N1", "note": "(stereo not shown) [Example 124, N-(6-oxo-1,2,3,4,4a,5,6,7-octahydropyrazino[1,2-a][1,5]benzodiazepin-9-yl)napthalene-1-sulfonamide]", "Ki": 0.0068}
{"smiles": "Cc1ccc(C)c(S(=O)(=O)Nc2ccc3c(c2)NC(=O)CC2CNCCN32)c1", "note": "(stereo not shown) [Example 125, 2,5-dimethyl-N-(6-oxo-1,2,3,4,4a,5,6,7-octahydropyrazino[1,2-a][1,5]benzodiazepin-9-yl)benzenesulfonamide]", "Ki": 0.0156}
{"smiles": "O=C1CC2CNCCN2c2ccc(NS(=O)(=O)c3ccccc3C(F)(F)F)cc2N1", "note": "(stereo not shown) [Example 126, N-(6-oxo-1,2,3,4,4a,5,6,7-octahydropyrazino[1,2-a][1,5]benzodiazepin-9-yl)-2-(trifluoromethyl)benzenesulfonamide]", "Ki": 0.0234}
{"smiles": "O=C1CC2CNCCN2c2ccc(NS(=O)(=O)c3ccc(Cl)s3)cc2N1", "note": "(stereo not shown) [Example 127, 5-chloro-N-(6-oxo-1,2,3,4,4a,5,6,7-octahydropyrazino[1,2-a][1,5]benzodiazepin-9-yl)thiophene-2-sulfonamide]", "Ki": 0.0443}
{"smiles": "O=C1CC2CNCCN2c2ccc(NS(=O)(=O)c3ccc4ccccc4c3)cc2N1", "note": "(stereo not shown) [Example 128, N-(6-oxo-1,2,3,4,4a,5,6,7-octahydropyrazino[1,2-a][1,5]benzodiazepin-9-yl)naphthalene-2-sulfonamide]", "Ki": 0.0043}
{"smiles": "Cc1cc(C)cc(S(=O)(=O)Nc2ccc3c(c2)NC(=O)CC2CNCCN32)c1", "note": "(stereo not shown) [Example 129, 3,5-dimethyl-N-(6-oxo-1,2,3,4,4a,5,6,7-octahydropyrazino[1,2-a][1,5]benzodiazepin-9-yl)benzenesulfonamide]", "Ki": 0.0132}
{"smiles": "O=C1CC2CNCCN2c2ccc(NS(=O)(=O)c3ccccc3OC(F)(F)F)cc2N1", "note": "(stereo not shown) [Example 130, N-(6-oxo-1,2,3,4,4a,5,6,7-octahydropyrazino[1,2-a][1,5]benzodiazepin-9-yl)-2-(trifluoromethoxy)benzenesulfonamide]", "Ki": 0.0181}
